According to patent US8119657B2, “Enantiomeric compositions of 2-amino-1-(2-isopropylpyrazolo[1,5-α]pyridin-3-yl)propan-1-one and related methods” (MediciNova, Inc., priority 2009, dated 2012):
“Also recorded” adds a separate entry of the source. Like-named read-outs stand apart in the source and are kept apart here.

How the values were obtained:
Water solubility = type: physicochemical
[1] = tested on: rat morphine withdrawal model; experiment: Rat morphine withdrawal model (naloxone-precipitated); type: in vivo; details: rats, 25 mg/kg PO QD for 7 days
Method: The ability of (S)-AV1013 to reduce/ameliorate withdrawal behavior relative to a control was evaluated in rats. The study was conducted in accordance with the method disclosed by Hutchinson et. al., Brain Behavior and Immunity, V. 23, (2009), p 240-250.
Rats were administered morphine in escalating doses over a five day period to induce dependence (15-22.5 mg/kg/day). (S)-AV1013 (25 mg/kg PO QD) or vehicle (saline) administration was initiated two days prior and continued concomitant with the morphine dosing regimen for a total of 7-days. On day seven all animals were administered naloxone SC to precipitate withdrawal symptoms. Specific withdrawal behaviors were scored over 6×, 10 minute intervals. A total of 15 rats per group were evaluated.

[2] = tested on: rat chronic constriction injury model of neuropathic pain; experiment: Rat chronic constriction injury model of neuropathic pain (von Frey mechanical allodynia); type: in vivo; details: rat CCI, oral 25 mg/kg, 2 hours post-dosing, 25 mg/kg
From the text: The (S)- and the (R)-enantiomer of AV1013 were each evaluated in a rat chronic constriction injury model of neuropathic pain (see, Ledeboer et. al., Neuron Glia Biology, (2006), p 279-291), to determine whether differences in their activity could be observed.
To induce allodynia, male Sprague-Dawley rats underwent chronic constriction injury (CCI) to the sciatic nerve as described by Bennett and Xie, Pain 1988; 33(1):87-107. The plantar surface of the hind paws was stimulated with von Frey filaments (Stoelting) to induce a withdrawal response by blinded personnel. The bending force of fiber required to induce a 50% withdrawal response was calculated following CCI surgery (pre-dosing baseline).
Allodynic rats (N=5-6), received an oral administration of (S)-AV1013 (25 mg/kg), AV1013-R (100 mg/kg) or vehicle. Two hours post-dosing, 50% paw withdrawal threshold was determined by blinded testers using von Frey filaments. The 50% withdrawal threshold prior to CCI surgery, pre-dosing (10 days post-surgery), and 2 hours post-dosing are plotted in FIG. 3.

[3] = Dog pharmacokinetics of the enantiomers after oral dosing of racemic AV1013; type: in vivo; details: for Cmax: po
Method: Three male beagle dogs were dosed orally with 10 mg/kg racemic AV1013 via gavage. AV1013 was dissolved in water at 5 mg/ml and dosed via gavage at a volume of 2 ml/kg. Blood samples were collected via the jugular vein at 5, 15 and 30 minutes, 1, 2, 4, 6, 8, and 24 hours post dosing.
A sensitive and specific chiral HPLC/MS/MS bioanalytical method for the detection of (S)-AV1013 and (R)-AV1013 enantiomers in rat and dog plasma was utilized. AV1013 enantiomers and the internal standard (AV1040, an analog of AV1013) were isolated from plasma by protein precipitation induced by acetonitrile. After centrifugation to sediment the proteins, the supernatant fractions were analyzed by high performance liquid chromatography (LC) in conjunction with a triple quadrupole mass spectrometer that used electrospray ionization in tandem with positive ionization (MS/MS) according to the conditions below. The LLOQ (lower level of quantitation) was typically <3 ng/mL.
Analysis of pharmacokinetic parameters was performed for each enantiomer via LC/MS bioanalytics and WinNonlin™ analysis (version 4.0.1; Pharsight Corp., Mountain View, Calif.), commercial software designed for the analysis of PK data. The PK modeling was based on a non-compartmental model with gradual input into the central compartment. Computation of the area under the curve (AUC) was based on the sum of trapezoidal areas for the plotted plasma concentration-time data. AUC and associated parameters were estimated by log-linear regression analysis of the terminal phase.

[4] = molecular target: T1, rhMIF (recombinant human Macrophage migration Inhibitory Factor) (Homo sapiens, UniProt P14174); experiment: MIF-induced migration of human peripheral blood monocytes (PBMCs); type: cell-based; details: rhMIF 90 nM, dilution series of inhibitor
T1 sequence (P14174 2-115 limits assumed): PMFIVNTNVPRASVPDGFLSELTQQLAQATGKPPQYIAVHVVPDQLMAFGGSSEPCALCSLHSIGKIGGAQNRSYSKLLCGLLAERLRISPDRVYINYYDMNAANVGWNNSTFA
Method: The chemo attractant activities of rhMIF (recombinant human Macrophage migration Inhibitory Factor) and the effect of inhibitors were measured using human peripheral blood monocytes (PBMCs) isolated from whole blood by centrifugation on Histopaque-1077 (Sigma). The cells were washed in RPMI-1640, diluted to 1×10^6 cells/ml and analyzed immediately. These assays were carried out in 24 well tissue culture plates utilizing 8.0 μm cell culture inserts (Falcon). Recombinant hMIF (90 nM), diluted in RPMI was placed in the cells of a 24 well plate with or without inhibitor (10-fold molar excess or dilution series) and allowed to incubate for 30 min at 37° C., 5% CO2. Washed human monocytes were added to the upper chamber of 8.0 μm cell culture inserts and allowed to incubate for 3 hrs at 37° C., 5% CO2. Cells that migrate through the membrane were fixed in methanol and stained with Geimsa, prior to cell counting using light microscopy.
Results are expressed as the mean number of cells counted per high power field for each of two replicates to obtain statistically significant data. (Legend: −Star=no human MIF, Skull=no human MIF+10 uM (S)-AV1013. See FIGS. 5A and 5B.

[5] = In vivo interconversion of enantiomers in rats dosed with enantiomerically pure (S)-AV1013; set-up: species or system rat; details: rats dosed with (S)-AV1013 of 99% enantiomeric excess, LLOQ=5 ng/mL

Structure (SMILES): CC(C)c1nn2ccccc2c1C(=O)[C@H](C)N [(S)-AV1013, (S)-2-amino-1-(2-isopropylpyrazolo[1,5-a]pyridin-3-yl)propan-1-one]
- water solubility (Water solubility): good water solubility
- withdrawal behaviors relative to vehicle [1]: reduced withdrawal behaviors; also recorded: reduced withdrawal symptoms relative to those receiving vehicle
- attenuation of mechanical allodynia (50% paw withdrawal threshold) [2]: substantially more potent in treating neuropathic pain than the corresponding (R) enantiomer
- attenuation of mechanical allodynia (50% paw withdrawal threshold) ([2]; listed as (S)-enantiomer): more potent in vivo than is the (R)-enantiomer
- AUC of (S) relative to (R) enantiomer ([3]; dog, oral dosing of racemate): > 3 fold
- Cmax of (S) relative to (R) enantiomer ([3]; dog, oral dosing of racemate): at least 2 fold
- Cmax of (S) relative to (R) enantiomer ([3]; dog, oral dosing of racemate, listed as (S)-enantiomer): > 2 fold
- Cmax ([3]; male, beagle, dog, plasma, 10 mg/kg, beagle dog, oral 10 mg/kg racemic AV1013, plasma, read-out: Cmax): 2630 ng/mL
- Cmax ([3]; male, beagle, dog, plasma, 10 mg/kg, dog, oral dosing of racemate, rounded values, read-out: mean peak plasma levels (Cmax)): 2600 ng/mL
- AUC ([3]; male, beagle, plasma, 10 mg/kg, dog, oral dosing of racemate, rounded values, read-out: calculated area under the curves (AUC)): 24200 ng·h/mL
- AUC(0-t) ([3]; male, beagle dog, oral 10 mg/kg racemic AV1013, plasma): 24200 ng·h/mL
- antagonism of MIF-induced cell migration [4]: antagonize MIF-induced macrophage migration in a dose-dependent fashion; also recorded: antagonize MIF-induced mononuclear cell migration in a similar dose dependent fashion
- plasma levels of the (R) enantiomer after dosing (S) (in vivo racemization) [5]: no detectable plasma levels of the corresponding (R) enantiomer
- plasma levels of the (R) enantiomer after dosing (S) (in vivo racemization) ([5]; listed as (S)-enantiomer): does not result in detectable levels of the (R)-enantiomer
